Measured values taken from ChEMBL document CHEMBL1201862, “PubChem BioAssay data set” (2004).
Blank lines part the entries; values can stand above or below the molecule they belong to. Activity calls are given as the source filed them.

Tests used:
[1] = target: T1, Kappa-type opioid receptor (Homo sapiens, UniProt P41145); test: SAR analysis of small molecule agonists of the kappa opioid receptor via a luminescent beta-arrestin assay - Set 3. [Related pubchem assays (depositor defined):AID1777, AID1785, AID1786, AID1966, AID2133, AID2136, AID2284, AID2500]; format: functional
T1 sequence (P41145 whole entry): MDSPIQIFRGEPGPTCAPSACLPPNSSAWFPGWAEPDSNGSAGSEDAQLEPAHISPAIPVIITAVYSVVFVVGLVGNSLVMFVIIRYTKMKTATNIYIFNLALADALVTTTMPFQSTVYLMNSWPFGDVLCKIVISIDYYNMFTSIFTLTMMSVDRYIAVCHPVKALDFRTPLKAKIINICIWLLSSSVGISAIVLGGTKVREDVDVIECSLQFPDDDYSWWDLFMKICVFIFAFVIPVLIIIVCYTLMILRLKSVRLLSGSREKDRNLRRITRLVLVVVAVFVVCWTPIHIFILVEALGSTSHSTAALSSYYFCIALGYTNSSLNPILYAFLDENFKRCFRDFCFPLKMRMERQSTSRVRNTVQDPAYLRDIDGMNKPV

[2] = target: Mu-type opioid receptor (Homo sapiens, UniProt P35372); test: SAR Analysis of Antagonists of the MOR Receptor using an Image-Based Assay - Set 3. [Related pubchem assays (depositor defined):AID1777, AID1785, AID1786, AID1966, AID2133, AID2136, AID2284, AID2285, AID2420]; format: functional
Mu-type opioid receptor, sequence (P35372 whole entry): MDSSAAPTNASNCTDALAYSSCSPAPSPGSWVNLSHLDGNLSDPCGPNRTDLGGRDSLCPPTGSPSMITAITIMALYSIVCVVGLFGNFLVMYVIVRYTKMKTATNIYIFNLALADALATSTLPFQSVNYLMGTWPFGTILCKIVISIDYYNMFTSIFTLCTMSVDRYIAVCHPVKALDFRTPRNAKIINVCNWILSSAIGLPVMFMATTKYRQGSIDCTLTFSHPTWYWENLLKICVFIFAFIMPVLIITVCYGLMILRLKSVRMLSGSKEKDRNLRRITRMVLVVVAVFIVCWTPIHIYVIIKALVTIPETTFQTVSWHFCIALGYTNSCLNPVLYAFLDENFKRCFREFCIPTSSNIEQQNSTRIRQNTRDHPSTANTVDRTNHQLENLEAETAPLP

[3] = target: Delta-type opioid receptor (Homo sapiens, UniProt P41143); test: SAR Analysis of Antagonists of the DOR Receptor using an Image-Based Assay - Set 3. [Related pubchem assays (depositor defined):AID1777, AID1785]; format: functional;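 further: U2OS cells expressing DOR1 and beta-arrestin GFP stimulated with 100 nM SNC80; imaging of GFP-tagged beta-arrestin moving into spots after receptor activation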
Delta-type opioid receptor, sequence (P41143 whole entry): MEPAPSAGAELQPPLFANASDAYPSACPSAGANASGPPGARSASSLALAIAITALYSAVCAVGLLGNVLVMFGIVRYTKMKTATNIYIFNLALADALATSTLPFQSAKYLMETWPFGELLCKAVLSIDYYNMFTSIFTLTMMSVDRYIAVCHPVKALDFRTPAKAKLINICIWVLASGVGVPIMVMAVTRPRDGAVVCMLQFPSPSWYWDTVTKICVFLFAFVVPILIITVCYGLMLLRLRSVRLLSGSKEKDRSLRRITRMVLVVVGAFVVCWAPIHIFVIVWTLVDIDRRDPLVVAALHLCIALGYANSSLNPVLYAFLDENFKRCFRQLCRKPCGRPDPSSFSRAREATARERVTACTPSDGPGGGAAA

[4] = target: T1, Kappa-type opioid receptor; test: SAR analysis of small molecule antagonists of the kappa opioid receptor via a luminescent beta-arrestin assay - Set 3. [Related pubchem assays (depositor defined):AID1777, AID1778, AID1785, AID1786, AID1966, AID2133, AID2136, AID2285, AID2495]; format: functional
[5] = target: T1, Kappa-type opioid receptor; test: SAR analysis of Antagonists of the Kappa Opioid Receptor (KOR) using an Image-Based Assay - Set 3. [Related pubchem assays (depositor defined):AID1777, AID1785]; format: functional
[6] = target: Sphingosine 1-phosphate receptor 4 (Homo sapiens, UniProt O95977); test: Late-stage fluorescence dose response cell-based assay to identify agonists of the Sphingosine 1-Phosphate Receptor 4 (S1P4): purchased compounds EC50. [Related pubchem assays (depositor defined):AID1509, AID1523, AID1563, AID1686, AID1701, AID1801]; format: functional
Sphingosine 1-phosphate receptor 4, sequence (O95977 whole entry): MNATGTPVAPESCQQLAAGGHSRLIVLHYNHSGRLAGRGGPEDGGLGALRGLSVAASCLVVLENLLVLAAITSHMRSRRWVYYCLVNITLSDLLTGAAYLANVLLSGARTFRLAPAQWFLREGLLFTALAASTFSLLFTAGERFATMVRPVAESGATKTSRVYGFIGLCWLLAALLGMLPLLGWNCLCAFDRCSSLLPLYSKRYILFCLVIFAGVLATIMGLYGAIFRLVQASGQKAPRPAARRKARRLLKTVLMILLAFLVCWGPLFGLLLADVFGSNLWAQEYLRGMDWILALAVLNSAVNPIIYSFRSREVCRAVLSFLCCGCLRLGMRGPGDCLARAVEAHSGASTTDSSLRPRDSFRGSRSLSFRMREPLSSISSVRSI

[7] = target: T2, E3 ubiquitin-protein ligase XIAP (Homo sapiens, UniProt P98170); test: Counter Screen using XIAP-Bir3 for Chemical Antagonists of Bir1/2 domains of IAP-family anti-apoptotic proteins. [Related pubchem assays (depositor defined):AID1018, AID1449, AID1514, AID1638, AID1749, AID1750, AID488957, AID488963]
T2 sequence (P98170 whole entry): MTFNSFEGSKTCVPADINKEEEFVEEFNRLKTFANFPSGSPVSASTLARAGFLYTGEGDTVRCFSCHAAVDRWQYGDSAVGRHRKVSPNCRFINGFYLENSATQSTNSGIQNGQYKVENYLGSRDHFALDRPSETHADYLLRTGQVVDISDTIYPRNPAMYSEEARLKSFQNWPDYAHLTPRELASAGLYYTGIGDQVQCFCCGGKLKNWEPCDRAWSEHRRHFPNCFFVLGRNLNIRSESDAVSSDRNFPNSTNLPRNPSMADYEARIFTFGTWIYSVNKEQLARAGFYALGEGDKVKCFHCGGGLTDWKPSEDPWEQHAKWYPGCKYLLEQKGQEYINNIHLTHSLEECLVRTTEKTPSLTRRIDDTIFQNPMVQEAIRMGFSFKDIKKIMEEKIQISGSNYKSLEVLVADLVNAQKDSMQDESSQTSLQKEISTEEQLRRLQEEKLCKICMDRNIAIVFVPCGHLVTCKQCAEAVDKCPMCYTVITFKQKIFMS

[8] = target: T2, E3 ubiquitin-protein ligase XIAP; test: XIAP antagonists, biochemical, IAP family, fluorescence polarization (AID 1018); format: functional
[9] = target: Metabotropic glutamate receptor 2 (Rattus norvegicus, UniProt P31421); test: rat mGluR2 glutamate potency shift by compounds, selectivity assay for mGluR4 modulator project, cell-based (AID 2188); format: functional
Metabotropic glutamate receptor 2, sequence (P31421 whole entry): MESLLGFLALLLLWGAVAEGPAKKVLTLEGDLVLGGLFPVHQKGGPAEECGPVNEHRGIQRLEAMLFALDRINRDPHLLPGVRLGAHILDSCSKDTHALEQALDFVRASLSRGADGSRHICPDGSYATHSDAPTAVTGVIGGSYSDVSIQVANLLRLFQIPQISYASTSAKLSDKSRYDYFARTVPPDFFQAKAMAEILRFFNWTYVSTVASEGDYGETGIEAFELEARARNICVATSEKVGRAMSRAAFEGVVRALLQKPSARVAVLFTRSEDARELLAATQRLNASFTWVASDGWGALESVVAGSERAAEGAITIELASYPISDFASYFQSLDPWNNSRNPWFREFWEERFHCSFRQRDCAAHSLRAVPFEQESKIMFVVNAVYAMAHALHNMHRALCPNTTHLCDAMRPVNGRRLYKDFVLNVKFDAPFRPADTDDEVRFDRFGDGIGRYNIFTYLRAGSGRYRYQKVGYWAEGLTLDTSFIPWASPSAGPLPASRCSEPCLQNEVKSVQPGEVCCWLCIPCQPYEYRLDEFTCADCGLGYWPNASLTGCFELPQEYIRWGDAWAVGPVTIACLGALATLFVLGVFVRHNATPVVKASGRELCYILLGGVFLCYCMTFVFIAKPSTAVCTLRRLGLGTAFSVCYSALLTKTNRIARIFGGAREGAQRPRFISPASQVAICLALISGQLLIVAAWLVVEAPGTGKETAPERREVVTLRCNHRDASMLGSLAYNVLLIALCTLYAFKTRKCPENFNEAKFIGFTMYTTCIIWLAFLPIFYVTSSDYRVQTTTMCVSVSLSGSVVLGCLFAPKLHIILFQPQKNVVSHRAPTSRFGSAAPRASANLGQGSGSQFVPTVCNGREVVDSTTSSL

[10] = target: Metabotropic glutamate receptor 7 (Rattus norvegicus, UniProt P35400); test: Modulation of the Metabotropic Glutamate Receptor mGluR4: Selectivity at mGluR7. [Related pubchem assays (depositor defined):AID2437, AID2807]; format: functional
Metabotropic glutamate receptor 7, sequence (P35400 whole entry): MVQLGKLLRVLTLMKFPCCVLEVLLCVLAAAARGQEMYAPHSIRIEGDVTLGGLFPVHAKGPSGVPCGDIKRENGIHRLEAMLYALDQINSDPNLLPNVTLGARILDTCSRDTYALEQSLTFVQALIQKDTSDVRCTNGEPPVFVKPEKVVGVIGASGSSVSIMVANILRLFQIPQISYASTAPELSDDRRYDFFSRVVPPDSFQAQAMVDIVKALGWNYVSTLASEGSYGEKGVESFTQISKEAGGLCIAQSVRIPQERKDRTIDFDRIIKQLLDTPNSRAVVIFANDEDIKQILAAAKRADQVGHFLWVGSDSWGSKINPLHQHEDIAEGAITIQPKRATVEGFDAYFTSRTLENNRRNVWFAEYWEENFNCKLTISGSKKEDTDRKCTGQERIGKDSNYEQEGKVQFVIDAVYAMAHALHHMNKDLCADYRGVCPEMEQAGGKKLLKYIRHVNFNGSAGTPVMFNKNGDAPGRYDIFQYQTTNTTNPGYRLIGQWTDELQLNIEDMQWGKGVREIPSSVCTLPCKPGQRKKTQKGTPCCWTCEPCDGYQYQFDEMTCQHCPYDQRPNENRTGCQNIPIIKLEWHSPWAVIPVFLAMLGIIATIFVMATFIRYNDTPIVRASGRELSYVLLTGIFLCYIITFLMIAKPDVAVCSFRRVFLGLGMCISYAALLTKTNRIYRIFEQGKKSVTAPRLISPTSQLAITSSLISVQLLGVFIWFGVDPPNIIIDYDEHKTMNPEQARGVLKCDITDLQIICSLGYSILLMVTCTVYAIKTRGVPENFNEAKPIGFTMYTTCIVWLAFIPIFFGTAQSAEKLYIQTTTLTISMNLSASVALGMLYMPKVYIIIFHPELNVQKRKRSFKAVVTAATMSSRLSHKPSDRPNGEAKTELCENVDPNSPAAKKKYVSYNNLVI

[11] = target: Metabotropic glutamate receptor 1 (Rattus norvegicus, UniProt P23385); test: Modulation of the Metabotropic Glutamate Receptor mGluR4: Selectivity at mGluR1. [Related pubchem assays (depositor defined):AID2437, AID2807]; format: functional
Metabotropic glutamate receptor 1, sequence (P23385 whole entry): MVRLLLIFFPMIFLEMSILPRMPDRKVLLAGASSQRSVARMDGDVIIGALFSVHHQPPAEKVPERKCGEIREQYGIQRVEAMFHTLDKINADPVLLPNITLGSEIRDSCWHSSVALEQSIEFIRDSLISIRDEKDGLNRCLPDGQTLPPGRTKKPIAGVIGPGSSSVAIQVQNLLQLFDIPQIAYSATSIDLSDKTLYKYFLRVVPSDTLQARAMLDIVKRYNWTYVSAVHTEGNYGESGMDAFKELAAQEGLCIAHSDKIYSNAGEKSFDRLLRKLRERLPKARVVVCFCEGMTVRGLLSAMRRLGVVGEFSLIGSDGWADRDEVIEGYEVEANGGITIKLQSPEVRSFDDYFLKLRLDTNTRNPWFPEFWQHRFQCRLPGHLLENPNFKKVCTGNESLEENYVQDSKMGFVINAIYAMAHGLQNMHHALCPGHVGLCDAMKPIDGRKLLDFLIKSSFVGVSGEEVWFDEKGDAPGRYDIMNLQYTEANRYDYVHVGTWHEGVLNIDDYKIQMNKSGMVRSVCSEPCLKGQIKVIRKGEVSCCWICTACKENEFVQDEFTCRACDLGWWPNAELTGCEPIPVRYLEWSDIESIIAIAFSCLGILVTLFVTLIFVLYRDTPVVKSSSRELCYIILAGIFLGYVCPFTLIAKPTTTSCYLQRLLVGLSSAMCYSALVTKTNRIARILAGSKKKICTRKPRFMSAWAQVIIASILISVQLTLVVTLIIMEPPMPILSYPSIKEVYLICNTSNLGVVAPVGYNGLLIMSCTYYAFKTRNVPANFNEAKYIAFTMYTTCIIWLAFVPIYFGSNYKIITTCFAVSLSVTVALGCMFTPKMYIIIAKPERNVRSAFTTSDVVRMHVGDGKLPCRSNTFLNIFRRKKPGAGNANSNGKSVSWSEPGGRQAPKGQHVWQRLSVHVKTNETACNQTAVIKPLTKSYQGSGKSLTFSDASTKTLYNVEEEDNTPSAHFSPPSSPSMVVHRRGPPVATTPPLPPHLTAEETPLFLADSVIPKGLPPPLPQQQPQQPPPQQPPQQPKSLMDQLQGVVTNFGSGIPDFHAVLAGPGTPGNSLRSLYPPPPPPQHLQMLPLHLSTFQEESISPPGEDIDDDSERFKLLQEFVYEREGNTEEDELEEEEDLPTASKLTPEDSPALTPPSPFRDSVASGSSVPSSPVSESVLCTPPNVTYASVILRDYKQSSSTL

EC50 [1]: 8 µM (active)
SMILES: Clc1ccc(CSc2nnc(-c3ccc(Br)cc3)n2Cc2ccco2)cc1Cl

IC50 [2]: > 32 µM (inactive)
IC50 [3]: > 32 µM (inactive)
IC50 [4]: > 20 µM (inactive)
IC50 [5]: 2.03 µM (active)
SMILES: CC(C)N(CCNC(=O)c1ccc(CNS(=O)(=O)c2ccc(Br)cc2)cc1)Cc1ccc(Br)cc1

SMILES: COc1ccc(CNC(=O)C(C)OC(=O)c2c(C)nn(Cc3ccccc3)c2Cl)cc1 (stereo unspecified)
EC50 [6]: > 50 µM (inactive)

IC50 [7]: > 100 µM (inactive)
IC50 [8]: > 100 µM (not active)
SMILES: COc1ccc(/C=N/Nc2nc(N3CCCC3)nc(N3CCCC3)n2)cc1

EC50 [9]: 1.04 µM (inactive)
Activity EC50 [10]: 313 µM
EC50 [11]: 0.943 µM (inactive)
SMILES: COc1cc(NC(=O)c2ccccn2)ccc1Cl
